From patent US11166924B2, “N-methyl-d-aspartate receptor allosteric modulators and methods for their use” (Qingdao Primedicine Pharmaceutical Company, Ltd., priority 2016, dated 2021) come the findings set out here.

Where two headings read alike, the source gives them in different places.

Type in all cases: cell-based
In one test the target is T1, GluN1/GluN2A^F177S (Rattus norvegicus, UniProt P35439+Q00959, F177S).
T1 construct: expressed in transfected cells; host or cells: HEK293
Briefly: Patch clamp in HEK293 cells expressing mutant GluN1/GluN2A F177S. How it is done:
(§1) Whole cell patch-clamp recordings were performed under voltage-clamp mode using an Axopatch 200B or 1D patch-clamp amplifier (Molecular Devices). Whole-cell currents were recorded at a holding potential of −60 mV unless indicated elsewhere, and signals were filtered at 2 kHz, digitized at 10 kHz (Digidata 1322A). Recording pipettes (3-5 MΩ) were filled with intracellular solution containing (mM): CsCl 140, HEPES 10, Mg-ATP 4, QX-314 5, pH 7.20; osmolarity, 290-295 mOsm. BAPTA (10 mM) was added in the intracellular solution (unless otherwise specified). The coverslips were continuously superfused with extracellular solution containing (mM): NaCl 140, KCl 5.4, HEPES 10, CaCl2 1.3, glucose 20, pH 7.4; osmolarity, 305-315 mOsm. NMDA-induced currents were applied by NMDA through perfusion fast-step (Warner Instruments). With perfusion fast-step system, NMDA application was achieved by using a two-square barrel glass tubing and depending on the age of the cultured neurons, CNQX (10 μM), TTX (0.5 μM) or BIC (10 μM) were added in the extracellular solution to minimize the activation of ionotropic glutamate receptors and voltage-gated sodium channels, respectively. All experiments were performed at room temperature. Recordings from at least six HEK293 cells/neurons were performed for all active compounds. Data were pooled among HEK293 cells or primary neurons and composite dose-response data were fitted by the equation Percentage Response=100×Relative Efficacy/[1+(EC50/Concentration)nH], where EC50 is the concentration of agonist that produces a half-maximal response, relative efficacy is the response at maximally effective concentration relative to the maximal response of glutamate, and nH is the Hill slope.
(§2) The site-directed mutagenesis of GluN1 or GluN2A subunits were performed by using the QuikChange method (Stratagene). All mutant clones were confirmed by DNA sequencing. Wild-type or mutant subunits were transfected in HEK293 cells and subjected to electrophysiology examinations. […]
Background: The patch-clamp technique gives a direct electrical read-out from membranes.

Another test concerns the target T2, GluN1/GluN2A^Q111A (Rattus norvegicus, UniProt P35439+Q00959, Q111A).
T2 construct: expressed in transfected cells; host or cells: HEK293
Briefly: Patch clamp in HEK293 cells expressing mutant GluN1/GluN2A Q111A. How it is done:
as §1, §2

For the next test, the target named is T3, GluN1/GluN2B NMDARs (Rattus norvegicus, UniProt P35439+Q00960).
T3 construct: expressed in transfected cells; host or cells: HEK293
In words: Whole-cell patch clamp recordings in HEK293 cells transfected with GluN1/GluN2B.

The target in a further test is T4, GluN1/GluN2A NMDARs (Rattus norvegicus, UniProt P35439+Q00959).
T4 construct: expressed in transfected cells; host or cells: HEK293
T4 sequence (Q00959 23-1464, other chains not shown): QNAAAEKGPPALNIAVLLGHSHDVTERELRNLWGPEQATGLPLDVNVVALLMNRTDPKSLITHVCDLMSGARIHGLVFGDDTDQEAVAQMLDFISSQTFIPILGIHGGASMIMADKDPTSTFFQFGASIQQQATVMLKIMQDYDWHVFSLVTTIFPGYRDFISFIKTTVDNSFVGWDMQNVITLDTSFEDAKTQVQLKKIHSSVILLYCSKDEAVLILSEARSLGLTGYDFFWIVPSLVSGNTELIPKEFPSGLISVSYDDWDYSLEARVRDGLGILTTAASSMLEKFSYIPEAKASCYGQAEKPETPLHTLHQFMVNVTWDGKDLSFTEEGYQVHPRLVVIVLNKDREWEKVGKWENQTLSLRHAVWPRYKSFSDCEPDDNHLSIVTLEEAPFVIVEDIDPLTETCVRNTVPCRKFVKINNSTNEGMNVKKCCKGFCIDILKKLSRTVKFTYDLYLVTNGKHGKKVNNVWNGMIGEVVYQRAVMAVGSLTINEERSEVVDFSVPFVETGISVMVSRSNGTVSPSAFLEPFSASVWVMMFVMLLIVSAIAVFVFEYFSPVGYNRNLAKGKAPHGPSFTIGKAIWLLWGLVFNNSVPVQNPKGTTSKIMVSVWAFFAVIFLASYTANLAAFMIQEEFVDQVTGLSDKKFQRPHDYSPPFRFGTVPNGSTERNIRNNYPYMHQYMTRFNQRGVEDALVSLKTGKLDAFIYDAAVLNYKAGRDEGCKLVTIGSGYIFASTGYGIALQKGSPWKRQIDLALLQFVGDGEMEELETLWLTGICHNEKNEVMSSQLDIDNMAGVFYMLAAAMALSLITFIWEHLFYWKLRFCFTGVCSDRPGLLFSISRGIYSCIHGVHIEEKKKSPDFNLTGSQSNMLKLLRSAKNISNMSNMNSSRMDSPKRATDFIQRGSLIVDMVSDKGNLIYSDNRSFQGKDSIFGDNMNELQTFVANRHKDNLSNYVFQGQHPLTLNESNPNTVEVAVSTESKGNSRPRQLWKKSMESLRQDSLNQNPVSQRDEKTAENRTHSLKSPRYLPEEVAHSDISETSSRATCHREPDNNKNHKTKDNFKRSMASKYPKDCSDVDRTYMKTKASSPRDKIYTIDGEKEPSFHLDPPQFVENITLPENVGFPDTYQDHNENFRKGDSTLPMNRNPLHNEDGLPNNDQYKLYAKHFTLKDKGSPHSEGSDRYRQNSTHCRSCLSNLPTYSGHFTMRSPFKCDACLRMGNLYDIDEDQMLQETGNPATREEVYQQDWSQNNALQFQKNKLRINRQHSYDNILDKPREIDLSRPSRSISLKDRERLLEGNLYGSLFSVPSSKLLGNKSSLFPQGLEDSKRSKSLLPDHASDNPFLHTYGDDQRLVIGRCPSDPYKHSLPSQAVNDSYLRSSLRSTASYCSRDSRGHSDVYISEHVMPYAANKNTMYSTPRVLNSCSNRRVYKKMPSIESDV
Briefly: Whole-cell patch clamp recordings in HEK293 cells transfected with GluN1/GluN2A. The settings on record: for Enhancement of NMDA-mediated currents: compared to glutamate alone; for Selectivity for GluN1/GluN2A versus GluN1/GluN2B NMDARs: FIG. 2, HEK293 cells expressing GluN1/GluN2A and GluN1/GluN2B; for Normalized Potentiation: positive modulation of GluN1/GluN2A NMDARs, concentration not given. Summed up:
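Rat GluN1/GluN2A (1:1) transiently expressed in HEK293, recorded 48 h post-transfection by whole-cell voltage clamp at −60 mV, room temperature. CsCl/BAPTA pipette solution, pH 7.4 bath, glutamate/NMDA-evoked currents by fast perfusion. ≥6 cells per compound; EC50, relative efficacy versus maximal glutamate response and Hill slope from pooled dose-response fits.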

Test [1] has as its target NMDARs in cultured hippocampal neurons (Rattus norvegicus, UniProt P35439+Q00959). Briefly: Whole-cell voltage clamp recordings of NMDAR currents in cultured hippocampal/cortical neurons.

T1 sequence (Q00959 23-1464 F177S, other chains not shown): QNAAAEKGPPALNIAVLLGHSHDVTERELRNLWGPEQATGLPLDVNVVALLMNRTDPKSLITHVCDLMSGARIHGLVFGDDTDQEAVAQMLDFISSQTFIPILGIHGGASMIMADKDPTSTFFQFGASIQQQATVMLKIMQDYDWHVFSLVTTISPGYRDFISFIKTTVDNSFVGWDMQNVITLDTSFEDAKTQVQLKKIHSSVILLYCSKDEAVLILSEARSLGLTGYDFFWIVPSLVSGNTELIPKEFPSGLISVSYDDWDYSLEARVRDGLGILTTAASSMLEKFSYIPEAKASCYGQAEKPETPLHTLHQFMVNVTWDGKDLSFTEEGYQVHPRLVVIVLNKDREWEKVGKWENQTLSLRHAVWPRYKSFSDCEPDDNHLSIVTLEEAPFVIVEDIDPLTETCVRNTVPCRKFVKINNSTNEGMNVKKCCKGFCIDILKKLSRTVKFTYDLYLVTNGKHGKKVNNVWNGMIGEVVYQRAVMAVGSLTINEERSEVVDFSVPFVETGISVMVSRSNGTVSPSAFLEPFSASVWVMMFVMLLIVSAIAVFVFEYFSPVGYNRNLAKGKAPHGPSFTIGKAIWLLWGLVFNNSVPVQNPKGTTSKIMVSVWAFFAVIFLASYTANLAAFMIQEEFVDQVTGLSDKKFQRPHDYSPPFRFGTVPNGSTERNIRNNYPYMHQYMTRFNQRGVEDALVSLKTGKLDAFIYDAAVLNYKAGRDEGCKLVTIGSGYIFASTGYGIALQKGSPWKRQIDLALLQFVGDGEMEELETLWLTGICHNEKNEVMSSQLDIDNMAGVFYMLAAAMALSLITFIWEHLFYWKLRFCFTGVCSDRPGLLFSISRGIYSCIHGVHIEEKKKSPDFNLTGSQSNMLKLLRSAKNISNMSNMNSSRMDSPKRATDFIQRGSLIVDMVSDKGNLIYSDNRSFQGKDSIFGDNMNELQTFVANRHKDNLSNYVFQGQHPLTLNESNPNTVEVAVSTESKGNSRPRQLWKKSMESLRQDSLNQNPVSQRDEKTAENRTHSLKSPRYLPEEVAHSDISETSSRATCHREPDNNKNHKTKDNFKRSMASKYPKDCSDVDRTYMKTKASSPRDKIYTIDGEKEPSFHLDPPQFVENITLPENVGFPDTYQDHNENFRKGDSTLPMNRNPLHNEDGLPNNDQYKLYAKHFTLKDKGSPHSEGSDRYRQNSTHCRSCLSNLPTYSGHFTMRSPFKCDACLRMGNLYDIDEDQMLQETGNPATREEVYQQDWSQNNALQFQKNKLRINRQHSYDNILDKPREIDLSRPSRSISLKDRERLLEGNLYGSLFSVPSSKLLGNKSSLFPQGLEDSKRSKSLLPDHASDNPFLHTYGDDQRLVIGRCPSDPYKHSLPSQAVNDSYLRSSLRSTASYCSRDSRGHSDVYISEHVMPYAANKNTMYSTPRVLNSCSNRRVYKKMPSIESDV
NMDARs in cultured hippocampal neurons, sequence (Q00959 23-1464, other chains not shown): as the sequence (Q00959 23-1464, other chains not shown) above

Turning to `COc1cccc(/C=N/NC(=O)c2ccccc2C)c1O` [Npam02, (E)-N′-(2-hydroxy-3-methoxybenzylidene)-2-methylbenzohydrazide], the “Modulation effect, GluN2A Phe177Ser” value at GluN1/GluN2A^F177S (100 μM, FIG. 8c) is 22.86±1.12%. At GluN1/GluN2A^Q111A (100 μM, FIG. 8c), the “Modulation effect, GluN2A Gln111Ala” value is reported as 30.69±1.60%. Moreover, the “Currents induced by compound on its own” value is listed as “did not induce currents on its own” on GluN1/GluN2B NMDARs and “not able to induce inward or outward currents on its own” in test [1]. The “Potentiation of NMDAR currents” value at GluN1/GluN2B NMDARs (100 μM) is “did not exhibit potentiation of NMDAR currents”. In addition, the activation at 100 µM on GluN1/GluN2B NMDARs (HEK293, Table 2, 100 μM, read-out: Normalized Potentiation GluN1/GluN2B) was -4.82 ± 2.83%; in test [1] (100 μM bath, NMDA 5 uM, glycine 2 μM, compared to NMDA control, read-out: Modulation of NMDAR currents), 43 ± 6.55%. The “Currents induced by compound applied alone” value on GluN1/GluN2A NMDARs (100 μM alone) was “no changes of inward or outward currents”. For the same compound, the “Enhancement of NMDA-mediated currents” value at GluN1/GluN2A NMDARs (100 μM co-applied with co-agonists) stood at 38.85±3.70%; at GluN1/GluN2A NMDARs (200 μM co-applied with co-agonists) it was 71.69±5.03%. On GluN1/GluN2A NMDARs (100 μM, wild-type GluN1/GluN2A, FIG. 8c), the “Modulation effect, wild-type” value is 41.75±2.62%. In addition, the “Selectivity for GluN1/GluN2A versus GluN1/GluN2B NMDARs” value at GluN1/GluN2A NMDARs was “selective for GluN1/GluN2A NMDARs”. Moreover, the “Normalized Potentiation” value on GluN1/GluN2A NMDARs (Table 1) worked out at 243.57 ± 24.81%.
For the compound `CCOc1cc(Cl)c(Cl)c(/C=N/NC(=O)c2ccccc2Br)c1O` [Npam43, (E)-2-bromo-N′-(2,3-dichloro-5-ethoxy-6-hydroxybenzylidene)benzohydrazide], the “Net Difference potentiation” value on GluN1/GluN2A^F177S (GluN2A F177S, normalized to wild-type) is recorded as −61.7 ± 0.03%; at GluN1/GluN2A^Q111A (GluN2A Q111A, normalized to Npam43 response in wild-type GluN1/GluN2A), −38.4±0.78%. For the same compound, the Relative potentiation stood at 79.9 ± 2.6% at GluN1/GluN2A^F177S (Table 3, GluN2A F177S); 129 ± 6.7% at GluN1/GluN2A^Q111A (Table 3, GluN2A Q111A); 209 ± 6.7% at GluN1/GluN2A NMDARs (Table 3, GluN1^WT/GluN2A^WT). In addition, the “Potentiation of NMDAR currents” value at GluN1/GluN2B NMDARs (10 μM) is “did not exhibit potentiation”. The “Dose-dependent enhancement of currents” value at GluN1/GluN2B NMDARs (GluN2B-containing NMDARs recordings) is on record as “No dose-dependent enhancement of currents”. Besides, the “Currents evoked by compound on its own” value on GluN1/GluN2A NMDARs was “did not evoke currents on its own”. The “Enhancement of NMDA-mediated currents” value at GluN1/GluN2A NMDARs (10 μM co-applied with co-agonists) is reported as “dramatically enhanced”. Also, the “Selectivity for GluN1/GluN2A versus GluN1/GluN2B NMDARs” value at GluN1/GluN2A NMDARs is listed as “selective for GluN1/GluN2A NMDARs”. The “Normalized Potentiation” value at GluN1/GluN2A NMDARs (Table 1) worked out at 363.52 ± 27.3%. Moreover, the EC50 is 0.27 µM at GluN1/GluN2A NMDARs (Table 1, potentiation, read-out: EC50); 0.24 ± 0.05 µM on GluN1/GluN2A NMDARs (dose-response, FIG. 9, read-out: EC50 of enhancement of GluN1/GluN2A currents); about 0.243 µM on GluN1/GluN2A NMDARs (dose-response, FIG. 9, read-out: pEC50 of enhancement of GluN1/GluN2A currents (converted)). Moreover, the “Saturation of enhancement relative to co-agonists alone baseline” value at GluN1/GluN2A NMDARs (dose-response, FIG. 9) is reported as about 350%. For the same compound, the activation at 10 µM in test [1] (10 μM, read-out: Potentiation at saturation point, above control level baseline) stood at 322 ± 27%. Also, the “Selective potentiation of GluN1/GluN2A NMDARs in hippocampal neurons” value in test [1] (FIG. 12, with ifenprodril, NVP-AAM077, AP5 controls) was “selectively potentiates GluN1/GluN2A NMDARs”. Also, the “Shift of NMDA dose-response curve” value in test [1] (Npam43 5 μM) is given as “shifted left”.
